System: CRL 1730 HUVECs
Assay: Microarray transcriptomics of HUVEC (HGERT/HG, HG/NG)
Format: cell-based, human
Conditions: HUVEC; 5 mM ERT + 30 mM glucose vs 30 mM glucose

OC[C@@H](O)[C@@H](O)CO [ERT, meso-1,2,3,4-tetrahydroxybutane]
HGERT/HG transcript DAP: Ψ 1.01 | HGERT/HG transcript DBT: Ψ 1.01 | HGERT/HG transcript DCAKD: Ψ 1.03 | HGERT/HG transcript DDX54: 0.99 Ω | HGERT/HG transcript DYNLT1: 0.99 Ω | HGERT/HG transcript EID2: 0.99 | HGERT/HG transcript ENG: Ψ 1.01 | HGERT/HG transcript ESD: 0.99 Ω | HGERT/HG transcript FASTKD1: 0.99 Ω | HGERT/HG transcript FASTKD3: 0.99 Ω | HGERT/HG transcript FBLIM1: Ψ 1.02 | HGERT/HG transcript FOXC1: Ψ 1.01 | HGERT/HG transcript FURIN: Ψ 1.02 | HGERT/HG transcript GJC1: Ψ 1.02 | HGERT/HG transcript GNAI2: Ψ 1.02 | HGERT/HG transcript GOLGA2: Ψ 1.04 | HGERT/HG transcript GPR124: Ψ 1.02 | HGERT/HG transcript GSN: Ψ 1.03 | HGERT/HG transcript HADH: 0.99 | HGERT/HG transcript HIATL1: 0.99 | HGERT/HG transcript HIG2: Ψ 1.01 | HGERT/HG transcript HIP1: Ψ 1.05 | HGERT/HG transcript HLTF: 0.99 Ω | HGERT/HG transcript HPCAL1: Ψ 1.01 | HGERT/HG transcript HSPE1: 0.99 Ω | HGERT/HG transcript IFI6: Ψ 1.13 | HGERT/HG transcript IFT20: 1.00 Ω | HGERT/HG transcript KIDINS220: Ψ 1.01 | HGERT/HG transcript KIF1B: Ψ 1.01 | HGERT/HG transcript LIMK1: Ψ 1.01 | HGERT/HG transcript LUC7L2: 0.99 | HGERT/HG transcript LYN: Ψ 1.02 | HGERT/HG transcript MAGED1: 1.00 Ω | HGERT/HG transcript MAP4K3: 0.98 Ω | HGERT/HG transcript MARK2: Ψ 1.03 | HGERT/HG transcript MBIP: 0.98 | HGERT/HG transcript MFSOL: 0.99 | HGERT/HG transcript MTM1: 0.98 | HGERT/HG transcript MYST4: Ψ 1.03 | HGERT/HG transcript Magmas: 0.98 | HGERT/HG transcript NAP8: 0.98 | HGERT/HG transcript NCK2: Ψ 1.01 | HGERT/HG transcript NDE1: Ψ 1.01 | HGERT/HG transcript NDUFA4: 0.99 | HGERT/HG transcript NOTCH1: Ψ 1.02 | HGERT/HG transcript OTUD5: Ψ 1.01 | HGERT/HG transcript OXCT1: 0.99 | HGERT/HG transcript PAQR3: 0.98 Ω | HGERT/HG transcript PDCD7: Ψ 1.02 | HGERT/HG transcript PDIA5: Ψ 1.01 | HGERT/HG transcript PHF16: 0.99 | HGERT/HG transcript PITRM1: Ψ 1.01 | HGERT/HG transcript PLCD4: 0.99 | HGERT/HG transcript PLEC1: Ψ 1.03 | HGERT/HG transcript PLEK2: 0.96 Ω | HGERT/HG transcript PLEKHA3: 0.99 | HGERT/HG transcript PRRX1: Ψ 1.01 | HGERT/HG transcript PXN: Ψ 1.01 | HGERT/HG transcript RHOB: Ψ 1.02 | HGERT/HG transcript RNF20: 0.99 | HGERT/HG transcript RP2: 0.98 Ω | HGERT/HG transcript RPS6KA2: Ψ 1.01 | HGERT/HG transcript RSU1: 0.99 Ω | HGERT/HG transcript SACM1L: 0.98 | HGERT/HG transcript SAMHD1: Ψ 1.07 | HGERT/HG transcript SAMM50: 0.99 | HGERT/HG transcript SCFD1: 0.99 | HGERT/HG transcript SDHC: 0.96 Ω | HGERT/HG transcript SDHD: 0.98 Ω | HGERT/HG transcript SEC31A: Ψ 1.01 | HGERT/HG transcript SEC61G: 0.99 | HGERT/HG transcript SENP3: Ψ 1.01 | HGERT/HG transcript SESTD1: Ψ 1.01 | HGERT/HG transcript SETD3: 0.99 | HGERT/HG transcript SFT2D2: 0.98 | HGERT/HG transcript SFXN4: 0.98 | HGERT/HG transcript SH3PXD2B: Ψ 1.01 | HGERT/HG transcript SLC2A12: Ψ 1.03 | HGERT/HG transcript SLC25A24: 0.99 Ω | HGERT/HG transcript SLC25A43: 0.98 | HGERT/HG transcript SLC30A6: 0.99 | HGERT/HG transcript SLC41A2: 0.99 | HGERT/HG transcript SLK: 0.99 Ω | HGERT/HG transcript SMOX: 0.99 Ω | HGERT/HG transcript SNX3: 0.99 | HGERT/HG transcript SNX14: 0.99 | HGERT/HG transcript SOAT1: 0.97 Ω | HGERT/HG transcript SOS1: Ψ 1.06 | HGERT/HG transcript STK39: 0.98 Ω | HGERT/HG transcript STXBP3: 0.98 | HGERT/HG transcript SUCLA2: 0.99 Ω | HGERT/HG transcript SUDS3: 0.99 | HGERT/HG transcript TACC1: Ψ 1.01 | HGERT/HG transcript TCEAL1: 0.99 Ω | HGERT/HG transcript TCF12: 0.99 Ω | HGERT/HG transcript TGM2: Ψ 1.01 | HGERT/HG transcript TIMM8B: 0.99 | HGERT/HG transcript TIMP2: Ψ 1.01 | HGERT/HG transcript TMEM14C: 0.99

Reference: patent US20150104868A1, “Methods of Maintaining and Improving Biological Cell Function and Activity” (GARGILL INCORPORATED, priority 2012, published 2015)
